Measurements published in US5292732A, “Pyrrolopyrazine derivatives” (Hoffmann-La Roche Inc., priority 1991, dated 1994).
Counter-ions that a name gives are not always drawn.

Key:
MAO (substrate 5-HT) = target: T1, MAO (substrate 5-HT) (Rattus norvegicus, UniProt P21396); assay: MAO inhibition in vitro, rat brain homogenate, substrate 14C-labelled serotonin (5-HT); format: biochemical; conditions: substrate 5-HT 2×10^-4 M, 37° C.
T1 construct: 20 μl of rat brain homogenate; from tissue; host or cells: rat brain homogenate
T1 sequence (P21396 1-526): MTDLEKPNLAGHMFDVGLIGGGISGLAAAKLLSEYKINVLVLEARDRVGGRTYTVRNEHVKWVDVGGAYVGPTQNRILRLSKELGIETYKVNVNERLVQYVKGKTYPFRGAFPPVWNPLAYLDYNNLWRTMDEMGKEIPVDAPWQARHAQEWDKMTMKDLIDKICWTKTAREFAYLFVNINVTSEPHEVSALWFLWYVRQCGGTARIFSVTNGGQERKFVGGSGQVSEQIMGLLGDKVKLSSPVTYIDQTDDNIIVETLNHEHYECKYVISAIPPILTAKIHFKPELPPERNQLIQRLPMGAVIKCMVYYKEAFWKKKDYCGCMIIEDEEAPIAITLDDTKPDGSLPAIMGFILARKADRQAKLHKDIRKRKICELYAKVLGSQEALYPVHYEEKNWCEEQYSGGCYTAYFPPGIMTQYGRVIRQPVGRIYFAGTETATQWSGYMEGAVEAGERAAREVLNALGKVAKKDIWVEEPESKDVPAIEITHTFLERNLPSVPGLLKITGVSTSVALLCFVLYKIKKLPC
Description: (§1) The MAO inhibiting activity of the compounds in accordance with the invention can be determined in vitro or ex vivo using standard methods. The preparations to be tested were investigated in the tests described hereinafter, which were based on the methods of R. J. Wurtmann and J. A. Axelrod [Biochem. Pharmac. 12, 1439-41 (1963).
(§2) Isolated rat brains are homogenized in 0.1 molar potassium phosphate buffer (pH 7.4) in the ratio 1:4 (weight/volume), the homogenate is diluted with the same buffer in the ratio 1:5 (volume/volume) and stored at -20° C. A mixture of the following composition was used for the incubation:
(§3) 100 μl of 1M phosphate buffer (pH 6.7);
(§4) 100 μl of solution of the substance to be tested in water or in 10% aqueous dimethyl sulphoxide;
(§5) 20 μl of rat brain homogenate; and as the substrate
(§6) 80 μl of ^14 C-labelled serotonin (5-HT) or ^14 C-labelled phenylethylamine (PEA), the radioactive concentration of which amounts to 100,000 decay per minute and which is used in a final concentration of 2×10^-4 M and, respectively, 2×10^-5 M.
(§7) A pre-incubation at 37° C. is effected for 30 minutes prior to the addition of the substrate. The incubation (in the presence of the substrate) is likewise effected at 37° C. and lasts for 10 minutes. The reaction is stopped by the addition of 200 μl of 2N hydrochloric acid.
(§8) In order to extract the desaminated product, the mixture is shaken for 10 minutes with 5 ml of diethyl ether or with 5 ml of n-heptane depending on whether 5-HT or PEA is used as the substrate, whereupon the mixture is centrifuged, the aqueous phase is frozen in a dry-ice bath, the organic phase is transferred into a counting glass and the radioactive concentration is determined in a β-counter.
(§9) The activity of the MAO in comparison to the control homogenates (without substance to be tested) is obtained on the basis of the β-values and the IC50 is defined as that concentration of a substance to be tested which reduces the activity of the MAO upon the substrate 5-HT or PEA by 50%.

MAO (substrate PEA) = target: T2, MAO (substrate PEA) (Rattus norvegicus, UniProt P19643); assay: MAO inhibition in vitro, rat brain homogenate, substrate 14C-labelled phenylethylamine (PEA); format: biochemical; conditions: substrate PEA 2×10^-5 M, 37° C.
T2 construct: 20 μl of rat brain homogenate; from tissue; host or cells: rat brain homogenate
T2 sequence (P19643 1-520): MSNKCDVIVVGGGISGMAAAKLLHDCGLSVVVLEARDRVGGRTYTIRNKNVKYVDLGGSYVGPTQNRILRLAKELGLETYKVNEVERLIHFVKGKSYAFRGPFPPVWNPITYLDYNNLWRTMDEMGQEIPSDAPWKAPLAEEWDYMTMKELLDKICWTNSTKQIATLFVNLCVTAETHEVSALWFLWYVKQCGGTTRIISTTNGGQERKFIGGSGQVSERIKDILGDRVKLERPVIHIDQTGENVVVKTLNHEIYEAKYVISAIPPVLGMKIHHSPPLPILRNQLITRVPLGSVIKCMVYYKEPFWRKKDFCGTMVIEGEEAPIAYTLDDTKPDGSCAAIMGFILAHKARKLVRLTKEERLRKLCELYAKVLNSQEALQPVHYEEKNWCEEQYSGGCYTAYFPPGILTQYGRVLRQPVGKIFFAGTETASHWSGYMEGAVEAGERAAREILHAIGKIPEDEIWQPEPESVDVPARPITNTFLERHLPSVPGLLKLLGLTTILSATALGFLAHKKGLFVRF
Description: as §1, §2, §3, §4, §5, §6, §7, §8, §9

[1] = system: MAO in the brain (substrate 5-HT); assay: MAO inhibition ex vivo in brain of rats, substrate 5-HT; parameters: species or system male albino rats (Fu-SPF); conditions: rat, 100 μmol/kg orally, 2 hrs., given in percentage of the control values
Description: as §1
(§10) The compounds to be tested are investigated for the inhibition of MAO in the brain and liver of male albino rats (Fu-SPF, 100-140 g. The test compounds are administered orally as a solution or suspension in water in a dosage of 100 μmol per kilogram body weight. After 2 hrs. the animals are narcotized and decapitated. The brain (without cerebellum) and a portion of the liver are dissected out and submitted analogously to the above-described procedure for the determination of the MAO inhibiting activity, whereby the amount of enzyme used is 20 μl of a 1:20 homogenate in the case of brain and 20 μl of a 1:80 homogenate in the case of liver. The activity of the compounds is determined from a comparison of the β-values with the values for control animals treated with vehicle and is given in percentage of the control values.

[2] = system: MAO in the brain (substrate PEA); assay: MAO inhibition ex vivo in brain of rats, substrate PEA; parameters: species or system male albino rats (Fu-SPF); conditions: rat, 100 μmol/kg orally, 2 hrs., given in percentage of the control values
Description: as §1, §10

[3] = system: MAO in the liver (substrate 5-HT); assay: MAO inhibition ex vivo in liver of rats, substrate 5-HT; parameters: species or system male albino rats (Fu-SPF); conditions: rat, 100 μmol/kg orally, 2 hrs., given in percentage of the control values
Description: as §1, §10

[4] = system: MAO in the liver (substrate PEA); assay: MAO inhibition ex vivo in liver of rats, substrate PEA; parameters: species or system male albino rats (Fu-SPF); conditions: rat, 100 μmol/kg orally, 2 hrs., given in percentage of the control values
Description: as §1, §10

[5] = Preliminary oral toxicity testing in mice; format: in vivo; conditions: one mouse per dosage; for LLD (lowest lethal dose): death within 24 hrs.; for MTD: in vivo, survival, read-out: HTD (highest tolerated dose)
Text: The toxicity of the compounds in accordance with the invention is investigated by orally administering different dosages of the dissolved or suspended compounds to mice. One mouse is used per dosage. The dosage is halved stepwise so that a dosage range of about 1.5 to the power of ten is covered. The results of this preliminary toxicity testing are reproduced in the form of two administered dosages.
The higher dosage (LLD=lowest lethal dose) led to death within 24 hrs., the lower dosage (HTD=highest tolerated dose) was survival. (Dosage data in miligram per kilogram body weight, administered orally).

Compound	IC50 (MAO (substrate 5-HT))	IC50 (MAO (substrate PEA))	Remaining brain MAO activity, 5-HT (% of control) [1]	Remaining brain MAO activity (PEA), % of control [2]	MAO inhibition, Liver, 5HT [3]	Remaining liver MAO activity (PEA), % of control [4]	LLD (lowest lethal dose) [5]	MTD [5]
CC1=NCCn2c1ccc2-c1ccc(O[C@@H]2C[C@H]3CC[C@@H]2C3)cc1 (relative stereo) [3,4-Dihydro-1-methyl-6-[p-(2-exonorbornyloxy)phenyl]pyrrolo[1,2-a]pyrazine]	20 nM	3 nM	45%	11%	51%	10%		
CC1=NCCn2c1ccc2-c1ccccc1 [3,4-Dihydro-1-methyl-6-phenylpyrrolo[1,2-a]pyrazine]	300 nM	> 1000 nM						
CC1=NCCn2cc(-c3ccccc3)cc21 [3,4-Dihydro-1-methyl-7-phenylpyrrolo[1,2-a]pyrazine]	90 nM	> 1000 nM						
COc1ccc(-c2ccc3n2CCN=C3C)cc1 [3,4-Dihydro-6-(p-methoxyphenyl)-1-methylpyrrolo[1,2-a]pyrazine]	50 nM	> 1000 nM						
CC1=NCCn2c1cc1c2-c2ccc(Cl)cc2CC1 [3-Chloro-5,6,10,11-tetrahydro-8-methylbenzo[g]pyrazino[1,2-a]indole]	10 nM	> 1000 nM	42%	93%	20%	96%		
CC1=NCCn2c1cc1c2-c2ccc(C3CCCCC3)cc2CC1 [3-cyclohexyl-5,6,10,11-tetrahydro-8-methylbenzo[g]pyrazino[1,2-a]indole]	2 nM	160 nM						
CC1=NCCn2c1cc1c2-c2ccc(OC3CCCC3)cc2CC1 [3-cyclopentyloxy-5,6,10,11-tetrahydro-8-methylbenzo[g]pyrazino[1,2-a]indole]	1 nM	7 nM	13%	45%	8%	50%		
CC1NCCn2c1cc1c2-c2ccccc2CC1 (centres unmarked) [5,6,8,9,10,11-Hexahydro-8-methylbenzo[g]pyrazino[1,2-a]indole]	90 nM	> 1000 nM	69%	95%	55%	78%		
COc1ccc2c(c1)CCc1cc3n(c1-2)CCN=C3C [5,6,10,11-Tetrahydro-3-methoxy-8-methyl-benzo[g]pyrazino[1,2-a]indole]	0.8 nM	> 1000 nM	28%	86%	5%	87%		
CC1=NCCn2c1cc1c2-c2ccccc2CC1 [5,6,10,11-Tetrahydro-8-methylbenzo[g]pyrazino[1,2-a]indole]	30 nM	> 1000 nM	48%	87%	47%	81%		
CC1=NCCn2c1ccc2-c1ccc(Cl)cc1 [6-(p-Chlorophenyl)-3,4-dihydro-1-methylpyrrolo[1,2-a]pyrazine]	350 nM	10000 nM						
CC1=NCCn2c1ccc2-c1ccc(Cl)cc1.O=C(O)/C=C/C(=O)O [Example 2, 6-(p-chloro-phenyl)-3,4-dihydro-1-methylpyrrolo[1,2-a]pyrazine fumarate (1:1)]							625 miligram per kilogram body wei	312 mg/kg
CC1=NCCn2c1ccc2-c1ccccc1.O=C(O)/C=C/C(=O)O [Example 9, 3,4-dihydro-1-methyl-6-phenylpyrrolo[1,2-a]pyrazine fumarate (1:1)]							625 miligram per kilogram body wei	312 mg/kg
CC1=NCCn2c1cc1c2-c2ccccc2CC1 [Example 10, 5,6,10,11-tetrahydro-8-methyl-benzo[g]pyrazino[1,2-a]indole fumarate (2:3)]							312 miligram per kilogram body wei	156 mg/kg
CC1=NCCn2c1cc1c2-c2ccc(Cl)cc2CC1.O=C(O)/C=C/C(=O)O [Example 12, 3-chloro-5,6,10,11-tetrahydro-8-methylbenzo[g]pyrazino[1,2-a]indole fumarate (1:1)]							250 miligram per kilogram body wei	125 mg/kg
CC1NCCn2c1cc1c2-c2ccccc2CC1.O=C(O)/C=C/C(=O)O (centres unmarked) [Example 29, 5,6,8,9,10,11-hexahydro-8-methylbenzo[g]pyrazino[1,2-a]indole fumarate (1:1)]							625 miligram per kilogram body wei	312 mg/kg
CC1NCCn2c1cc1c2-c2ccc(Cl)cc2CC1.O=C(O)/C=C/C(=O)O (centres unmarked) [Example 31, 3-chloro-5,6,8,9,10,11-hexahydro-8-methylbenzo[g]pyrazino[1,2-a]indole fumarate (1:1)]							1000 miligram per kilogram body wei	500 mg/kg
CC1=NCCn2c1ccc2-c1ccc(OC2CCCC2)cc1.O=C(O)/C=C/C(=O)O [Example 37, 6-[p-(cyclopentyloxy)phenyl]-3,4-dihydro-1-methylpyrrolo[1,2-a]pyrazine fumarate (1:1)]							625 miligram per kilogram body wei	312 mg/kg
CC1=NCCn2c1cc1c2-c2ccc(OC3CCCC3)cc2CC1.O=C(O)/C=C/C(=O)O [Example 53, 3-cyclopentyloxy-5,6,10,11-tetrahydro-8-methylbenzo[g]pyrazino[1,2-a]indole fumarate (1:1)]							500 miligram per kilogram body wei	250 mg/kg
